What follows are molecules tested against T1, ΔF508-CFTR (Homo sapiens, UniProt P13569, DEL508-508) (assay: Membrane potential optical assay (FRET voltage-sensor dyes, VIPR), identification of potentiator compounds). Conditions: Table 3; assay not given.
T1 construct: expressed in transfected cells
Assay type: cell-based
Method in brief: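 NIH3T3 mouse fibroblasts stably expressing ΔF508-CFTR, cultured 24 h at 27 °C, were loaded with FRET voltage dyes CC2-DMPE and DiSBAC2(3). Double-addition format: first addition of Cl⁻-free (gluconate) medium with or without compound; membrane-potential change read as fluorescence on VIPR II.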

T1 sequence (P13569 with tags, fused parts or gaps DEL508-508): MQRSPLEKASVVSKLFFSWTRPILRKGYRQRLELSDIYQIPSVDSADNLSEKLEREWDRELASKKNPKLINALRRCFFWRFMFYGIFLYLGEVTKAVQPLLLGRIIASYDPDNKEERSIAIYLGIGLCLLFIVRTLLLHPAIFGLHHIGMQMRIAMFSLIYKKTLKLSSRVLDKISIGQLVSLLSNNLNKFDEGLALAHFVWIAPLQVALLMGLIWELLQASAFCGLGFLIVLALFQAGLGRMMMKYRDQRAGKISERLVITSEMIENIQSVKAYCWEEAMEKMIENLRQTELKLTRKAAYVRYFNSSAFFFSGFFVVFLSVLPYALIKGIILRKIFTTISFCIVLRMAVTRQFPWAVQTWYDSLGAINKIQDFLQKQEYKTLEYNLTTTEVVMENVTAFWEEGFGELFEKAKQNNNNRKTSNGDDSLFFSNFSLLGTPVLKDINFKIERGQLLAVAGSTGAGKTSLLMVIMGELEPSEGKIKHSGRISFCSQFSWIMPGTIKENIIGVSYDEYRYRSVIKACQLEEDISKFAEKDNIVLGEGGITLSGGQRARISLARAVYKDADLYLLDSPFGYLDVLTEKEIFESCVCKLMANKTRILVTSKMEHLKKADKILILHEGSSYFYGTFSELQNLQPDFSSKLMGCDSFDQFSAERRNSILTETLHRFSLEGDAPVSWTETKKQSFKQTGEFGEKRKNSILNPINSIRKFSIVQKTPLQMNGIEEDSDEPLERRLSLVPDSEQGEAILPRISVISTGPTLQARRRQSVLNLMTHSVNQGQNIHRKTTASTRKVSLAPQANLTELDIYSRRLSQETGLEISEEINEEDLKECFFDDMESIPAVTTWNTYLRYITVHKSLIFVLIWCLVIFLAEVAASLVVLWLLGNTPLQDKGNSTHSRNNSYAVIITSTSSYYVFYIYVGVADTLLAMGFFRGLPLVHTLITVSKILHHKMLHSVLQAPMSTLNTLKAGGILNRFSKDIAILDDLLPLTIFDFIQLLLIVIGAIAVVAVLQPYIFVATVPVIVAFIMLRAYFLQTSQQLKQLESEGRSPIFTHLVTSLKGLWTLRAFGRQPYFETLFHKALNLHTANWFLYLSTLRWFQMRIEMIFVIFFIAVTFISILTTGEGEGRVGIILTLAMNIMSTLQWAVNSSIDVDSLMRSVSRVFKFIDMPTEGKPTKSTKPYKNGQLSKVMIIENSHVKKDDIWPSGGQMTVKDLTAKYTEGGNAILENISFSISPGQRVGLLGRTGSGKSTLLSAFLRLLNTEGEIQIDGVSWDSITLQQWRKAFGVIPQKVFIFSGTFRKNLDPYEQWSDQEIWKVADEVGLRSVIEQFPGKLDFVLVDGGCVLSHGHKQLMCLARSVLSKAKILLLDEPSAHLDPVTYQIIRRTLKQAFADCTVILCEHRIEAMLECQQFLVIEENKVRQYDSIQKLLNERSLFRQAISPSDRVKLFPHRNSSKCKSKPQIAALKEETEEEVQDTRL

| EC50 [µM] | Structure (SMILES) |
| --- | --- |
| < 10 | CCOc1ccccc1-c1ccccc1NC(=O)c1c[nH]c2ccccc2c1=O [Compound 344, N-[2-(2-ethoxyphenyl)phenyl]-4-oxo-1H-quinoline-3-carboxamide] |
| 10 to 25 | CC(=O)N1CCCC(C)(C)c2ccc(NC(=O)c3c[nH]c4ccccc4c3=O)cc21 [Compound 109, N-(1-acetyl-2,3,4,5-tetrahydro-5,5-dimethyl-1H-benzo[b]azepin-8-yl)-1,4-dihydro-4-oxoquinoline-3-carboxamide] |
| < 10 | C[C@@H]1CCCN1c1ccc(NC(=O)c2c[nH]c3ccccc3c2=O)c(C(F)(F)F)c1 [Compound 572, (R)-N-(4-(2-methylpyrrolidin-1-yl)-2-(trifluoromethyl)phenyl)-4-oxo-1,4-dihydroquinoline-3-carboxamide] |

Same assay, conditions: Table 3; assay not given; read-out: % Activity (% Efficacy, relative efficacy)

| Structure (SMILES) | Emax [%] |
| --- | --- |
| O=C(Nc1cccc(S(=O)(=O)N2CCOCC2)c1)c1c[nH]c2ccccc2c1=O [Compound 185, N-(3-morpholinosulfonylphenyl)-4-oxo-1H-quinoline-3-carboxamide] | < 25 |
| CSc1ccc(-c2ccccc2NC(=O)c2c[nH]c3ccccc3c2=O)cc1 [Compound 223, N-[2-(4-methylsulfanylphenyl)phenyl]-4-oxo-1H-quinoline-3-carboxamide] | 25 to 100 |
| O=C(Nc1cc2[nH]ccc2cc1-c1cccnc1)c1c[nH]c2ccccc2c1=O [Compound 65, 4-oxo-N-[5-(3-pyridyl)-1H-indol-6-yl]-1H-quinoline-3-carboxamide] | 25 to 100 |
| CCCOc1ccc(N)cc1NC(=O)c1c[nH]c2ccccc2c1=O [Compound 17, N-(5-Amino-2-propoxy-phenyl)-4-oxo-1H-quinoline-3-carboxamide] | 25 to 100 |
| O=C(Nc1cccc(S(=O)(=O)N2CCCC2)c1)c1c[nH]c2ccccc2c1=O [Compound 24, 4-oxo-N-(3-pyrrolidin-1-ylsulfonylphenyl)-1H-quinoline-3-carboxamide] | < 25 |
| Cc1nc2cc(NC(=O)c3c[nH]c4ccccc4c3=O)ccc2s1 [Compound 44, N-(2-methylbenzothiazol-5-yl)-4-oxo-1H-quinoline-3-carboxamide] | 25 to 100 |
| CC1=NN(c2cccc(NC(=O)c3c[nH]c4ccccc4c3=O)c2)C(=O)C1 [Compound 212, N-[3-(3-methyl-5-oxo-1,4-dihydropyrazol-1-yl)phenyl]-4-oxo-1H-quinoline-3-carboxamide] | < 25 |
| CCc1cccc(CC)c1NC(=O)c1c[nH]c2ccccc2c1=O [Compound 325, N-(2,6-diethylphenyl)-4-oxo-1H-quinoline-3-carboxamide] | 25 to 100 |
| Cc1ccc(NC(=O)c2c[nH]c3ccccc3c2=O)c(C)c1 [Compound 281, N-(2,4-dimethylphenyl)-4-oxo-1H-quinoline-3-carboxamide] | 25 to 100 |
| CC(C)(C)c1ccc(NC(=O)c2c[nH]c3ccccc3c2=O)cc1N [Compound 271, N-(3-amino-4-tert-butyl-phenyl)-4-oxo-1H-quinoline-3-carboxamide] | 25 to 100 |
| O=C(Nc1ccccc1N1CCCC1)c1c[nH]c2ccccc2c1=O [Compound 295, 4-oxo-N-(2-pyrrolidin-1-ylphenyl)-1H-quinoline-3-carboxamide] | 25 to 100 |
| O=C(Nc1ccc(F)cc1)c1c[nH]c2ccccc2c1=O [Compound 198, N-(4-fluorophenyl)-4-oxo-1H-quinoline-3-carboxamide] | 25 to 100 |
| O=C(Nc1ccc(C(O)(C(F)(F)F)C(F)(F)F)cc1)c1c[nH]c2ccccc2c1=O [Compound 150, 4-oxo-N-[4-[2,2,2-trifluoro-1-hydroxy-1-(trifluoromethyl)ethyl]phenyl]-1H-quinoline-3-carboxamide] | 25 to 100 |
| CCOc1ccc2ncc(C(=O)Nc3ccc4cc[nH]c4c3)c(O)c2c1 [Compound 112, 6-ethoxy-4-hydroxy-N-(1H-indol-6-yl)quinoline-3-carboxamide] | 25 to 100 |
| CC(=O)N1CCc2ccc(NC(=O)c3c[nH]c4ccccc4c3=O)cc21 [Compound 233, N-(1-acetylindolin-6-yl)-4-oxo-1H-quinoline-3-carboxamide] | < 25 |
| CC(=O)N1CCCC(C)(C)c2ccc(NC(=O)c3c[nH]c4ccccc4c3=O)cc21 [Compound 109, N-(1-acetyl-2,3,4,5-tetrahydro-5,5-dimethyl-1H-benzo[b]azepin-8-yl)-1,4-dihydro-4-oxoquinoline-3-carboxamide] | 25 to 100 |
| Cc1ccc2c(c1)c(=O)c(C(=O)Nc1ccccc1-c1ccccc1)cn2C [Compound 128, 1,6-dimethyl-4-oxo-N-(2-phenylphenyl)-1H-quinoline-3-carboxamide] | < 25 |
| CCc1cccc(NC(=O)c2c[nH]c3ccccc3c2=O)n1 [Compound 125, N-(6-ethyl-2-pyridyl)-4-oxo-1H-quinoline-3-carboxamide] | 25 to 100 |
| O=C(Nc1ccccc1-c1ccccc1OC(F)(F)F)c1c[nH]c2ccccc2c1=O [Compound 156, 4-oxo-N-[2-[2-(trifluoromethoxy)phenyl]phenyl]-1H-quinoline-3-carboxamide] | 25 to 100 |
| O=C(Nc1ccc(S(=O)(=O)Nc2ccccn2)cc1)c1c[nH]c2ccccc2c1=O [Compound 21, 4-oxo-N-[4-(2-pyridylsulfamoyl)phenyl]-1H-quinoline-3-carboxamide] | < 25 |
| COC(=O)c1ccc(-c2ccccc2NC(=O)c2c[nH]c3ccccc3c2=O)cc1 [Compound 166, 4-[2-[(4-oxo-1H-quinolin-3-yl)carbonylamino]phenyl]benzoic acid methyl ester] | 25 to 100 |
| CC(C)c1ccc(NC(=O)c2c[nH]c3ccccc3c2=O)cc1N [Compound 69, N-(3-amino-4-isopropyl-phenyl)-4-oxo-1H-quinoline-3-carboxamide] | 25 to 100 |
| Cc1cc2ccc(NC(=O)c3c[nH]c4ccccc4c3=O)cc2[nH]1 [Compound 104, N-(2-methyl-1H-indol-6-yl)-4-oxo-1H-quinoline-3-carboxamide] | 25 to 100 |
| Cc1ccnc(NC(=O)c2c[nH]c3ccccc3c2=O)c1 [Compound 84, N-(4-methyl-2-pyridyl)-4-oxo-1H-quinoline-3-carboxamide] | < 25 |
| CC(C)OC(=O)c1cccc(-c2ccccc2NC(=O)c2c[nH]c3ccccc3c2=O)c1 [Compound 71, 3-[2-[(4-oxo-1H-quinolin-3-yl)carbonylamino]phenyl]benzoic acid isopropyl ester] | 25 to 100 |
| CCOc1cc(NC(=O)c2c[nH]c3ccccc3c2=O)c(OCC)cc1NC(=O)c1ccccc1 [Compound 7, N-(4-benzoylamino-2,5-diethoxy-phenyl)-4-oxo-1H-quinoline-3-carboxamide] | < 25 |
| O=C(Nc1cc(Cl)cc(NS(=O)(=O)CCN2CCOCC2)c1)c1c[nH]c2ccccc2c1=O [Compound 46, N-[3-chloro-5-(2-morpholinoethylsulfonylamino)phenyl]-4-oxo-1H-quinoline-3-carboxamide] | 25 to 100 |
| CCc1ccc(NC(=O)c2c[nH]c3ccccc3c2=O)cc1NC(=O)OC [Compound 129, [2-ethyl-5-[(4-oxo-1H-quinolin-3-yl)carbonylamino]phenyl]aminoformic acid methyl ester] | 25 to 100 |

Continued, values first:

| Emax [%] | Structure (SMILES) |
| --- | --- |
| 25 to 100 | CC(C)(C)c1cccc(NC(=O)c2c[nH]c3ccc(F)cc3c2=O)c1 [Compound 664, 6-fluoro-4-oxo-N-(3-tert-butylphenyl)-1H-quinoline-3-carboxamide] |
| < 25 | O=C(Nc1ccc(N2CCOCC2)nc1)c1c[nH]c2ccccc2c1=O [Compound 400, N-(6-morpholino-3-pyridyl)-4-oxo-1H-quinoline-3-carboxamide] |
| 25 to 100 | CC(C)(C)c1cc(C(F)(F)F)c(NC(=O)c2c[nH]c3cccc(O)c3c2=O)cc1O [Compound 487, 5-hydroxy-N-[5-hydroxy-4-tert-butyl-2-(trifluoromethyl)phenyl]-4-oxo-1H-quinoline-3-carboxamide] |
| 25 to 100 | CC(C)(C)c1ccc(NC(=O)c2c[nH]c3ccccc3c2=O)cc1 [Compound 448, 4-oxo-N-(4-tert-butylphenyl)-1H-quinoline-3-carboxamide] |
| 25 to 100 | CCOc1ccccc1-c1ccccc1NC(=O)c1c[nH]c2ccccc2c1=O [Compound 344, N-[2-(2-ethoxyphenyl)phenyl]-4-oxo-1H-quinoline-3-carboxamide] |
| 25 to 100 | Cc1cc(C2CCCCC2)ccc1NC(=O)c1c[nH]c2ccccc2c1=O [Compound 647, N-(4-cyclohexyl-2-methyl-phenyl)-4-oxo-1H-quinoline-3-carboxamide] |
| > 100 | O=C(Nc1ccc2c(C(F)(F)F)c[nH]c2c1)c1c[nH]c2ccccc2c1=O [Compound 545, 4-oxo-N-[3-(trifluoromethyl)-1H-indol-6-yl]-1H-quinoline-3-carboxamide] |
| 25 to 100 | Cc1cccc2[nH]cc(C(=O)Nc3ccc(N4CCC(C)(C)C4)cc3C(F)(F)F)c(=O)c12 [Compound 578, N-[4-(3,3-dimethylpyrrolidin-1-yl)-2-(trifluoromethyl)phenyl]-5-methyl-4-oxo-1H-quinoline-3-carboxamide] |
| 25 to 100 | C[C@H]1CCCN1c1ccc(NC(=O)c2c[nH]c3ccccc3c2=O)c(C(F)(F)F)c1 [Compound 618, (S)-N-(4-(2-methylpyrrolidin-1-yl)-2-(trifluoromethyl)phenyl)-4-oxo-1,4-dihydroquinoline-3-carboxamide] |
| 25 to 100 | CC(C)c1ccc(NC(=O)c2c[nH]c3ccc(Cl)cc3c2=O)c(C(F)(F)F)c1 [Compound 657, 6-chloro-N-[4-isopropyl-2-(trifluoromethyl)phenyl]-4-oxo-1H-quinoline-3-carboxamide] |
| 25 to 100 | O=C(Nc1cccc(SC(F)(F)F)c1)c1c[nH]c2ccccc2c1=O [Compound 456, 4-oxo-N-[3-(trifluoromethylsulfanyl)phenyl]-1H-quinoline-3-carboxamide] |
| > 100 | COc1cc2c(=O)c(C(=O)Nc3cc4[nH]ccc4cc3C(C)(C)C)c[nH]c2cc1F [Compound 611, 7-fluoro-6-methoxy-4-oxo-N-(5-tert-butyl-1H-indol-6-yl)-1H-quinoline-3-carboxamide] |
| 25 to 100 | O=C(Nc1ccc(N2CCC[C@H]2CO)cc1C(F)(F)F)c1c[nH]c2ccccc2c1=O [Compound 634, (S)-N-(4-(2-(hydroxymethyl)pyrrolidin-1-yl)-2-(trifluoromethyl)phenyl)-4-oxo-1,4-dihydroquinoline-3-carboxamide] |
| 25 to 100 | C[C@@H]1CCCN1c1ccc(NC(=O)c2c[nH]c3ccccc3c2=O)c(C(F)(F)F)c1 [Compound 572, (R)-N-(4-(2-methylpyrrolidin-1-yl)-2-(trifluoromethyl)phenyl)-4-oxo-1,4-dihydroquinoline-3-carboxamide] |
| 25 to 100 | O=C(Nc1ccccc1-c1ccccn1)c1c[nH]c2ccccc2c1=O [Compound 692, 4-oxo-N-[2-(2-pyridyl)phenyl]-1H-quinoline-3-carboxamide] |

Source: patent US8802700B2 (Vertex Pharmaceuticals Incorporated, priority 2010, dated 2014)
